Converted amounts (≈) assume the structure as drawn.
Key:
[1] = system: E. faecium A491 (Amp^R); assay: Broth microdilution MIC (NCCLS); type: cell-based; conditions: Enterococcus faecium
Outline: (§1)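 MIC = lowest drug concentration with no bacterial growth, read at 650 nm and visually after 24 h at 35° C. Assay run in MHB per NCCLS, inoculum 5×10^5 CFU/mL, compounds serially diluted 2-fold in plate.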

[2] = system: E. faecium VanA (Van^R); assay: Broth microdilution MIC (NCCLS); type: cell-based; conditions: Enterococcus faecium
Outline: as §1

[3] = system: S. aureus 76 (Meth^R)(lac^+); assay: Broth microdilution MIC (NCCLS); type: cell-based; conditions: Staphylococcus aureus
Outline: as §1

[4] = system: S. aureus Col (Meth^R)(lac^−); assay: Broth microdilution MIC (NCCLS); type: cell-based; conditions: Staphylococcus aureus
Outline: as §1

[5] = system: S. haemolyticus 05 (Meth^R); assay: Broth microdilution MIC (NCCLS); type: cell-based; conditions: Staphylococcus haemolyticus
Outline: as §1

[6] = system: S. aureus ATCC29213; assay: Human serum binding effect: MIC with and without human serum; type: cell-based, Staphylococcus aureus; conditions: 1:1 human serum:MHB
Outline: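 Serum binding was estimated as the ratio of S. aureus ATCC29213 MIC in 1:1 human serum:Mueller-Hinton broth to MIC without serum. Compounds were serially 2-fold diluted, and wells received an early-log-phase inoculum at 1×10^6 CFU/mL final. Inoculum size was checked by colony counts on TSA after overnight incubation at 35 °C.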

[7] = system: S. aureus Col8A (Meth^S)(lac^−); assay: Broth microdilution MIC (NCCLS); type: cell-based; conditions: Staphylococcus aureus
Outline: as §1

| SMILES | MIC [1] [mg/L] | MIC [2] [mg/L] | MIC [3] [mg/L] | MIC [4] [mg/L] | MIC [5] [mg/L] | Human serum binding effect (ratio of MIC value determined with and without human serum added) [6] | MIC [7] [mg/L] |
| --- | --- | --- | --- | --- | --- | --- | --- |
| N=C(N)NCCSCc1cnccc1SC1=C(C(=O)O)N2C(=O)[C@@H](NC(=O)/C(=N\O)c3nsc(N)n3)[C@H]2SC1 [Cmpd 25, (7R)-7-[(Z)-2-(5-amino-1,2,4-thiadiazol-3-yl)-2-(hydroxyimino)acetamido]-3-[3-(2-guanidinoethylthiomethyl)pyrid-4-ylthio]-3-cephem-4-carboxylic acid] | 32 (≈ 52.4 µM) | 1 (≈ 1.64 µM) | 1 (≈ 1.64 µM) | 1 (≈ 1.64 µM) | 2 (≈ 3.27 µM) | 1 | – |
| NCCSCc1nc(SCCN)sc1SC1=C(C(=O)O)N2C(=O)[C@@H](NC(=O)/C(=N\O)c3nc(N)sc3Cl)[C@H]2SC1 [Cmpd 11, (7R)-7-[(Z)-2-(2-amino-5-chlorothiazol-4-yl)-2-(hydroxyimino)acetamido]-3-[4-(2-aminoethylthiomethyl)-2-aminoethylthio-1,3-thiazol-5-ylthio]-3-cephem-4-carboxylic acid] | 4 (≈ 5.85 µM) | 4 (≈ 5.85 µM) | 0.5 (≈ 0.732 µM) | 0.5 (≈ 0.732 µM) | 0.5 (≈ 0.732 µM) | 4 | – |
| NCCSCc1cnccc1SC1=C(C(=O)O)N2C(=O)[C@@H](NC(=O)/C(=N\O)c3nsc(N)n3)[C@H]2SC1 [Cmpd 18, (7R)-7-[(Z)-2-(5-amino-1,2,4-thiadiazol-3-yl)-2-(hydroxyimino)acetamido]-3-[3-(2-aminoethylthiomethyl)pyrid-4-ylthio]-3-cephem-4-carboxylic acid] | 32 (≈ 56.3 µM) | 1 (≈ 1.76 µM) | 1 (≈ 1.76 µM) | 1 (≈ 1.76 µM) | 2 (≈ 3.52 µM) | 2 | – |
| NCCSCc1cnccc1SC1=C(C(=O)O)N2C(=O)[C@@H](NC(=O)/C(=N\O)c3nc(N)sc3Cl)[C@H]2SC1 [Cmpd 20, (7R)-7-[(Z)-2-(2-amino-5-chlorothiazol-4-yl)-2-(hydroxyimino)acetamido]-3-[3-(2-aminoethylthiomethyl)pyrid-4-ylthio]-3-cephem-4-carboxylic acid] | 8 (≈ 13.3 µM) | 0.25 (≈ 0.415 µM) | 1 (≈ 1.66 µM) | 0.5 (≈ 0.83 µM) | 2 (≈ 3.32 µM) | 3 | – |
| NCCSCc1nc(N)sc1SC1=C(C(=O)O)N2C(=O)[C@@H](NC(=O)/C(=N\O)c3nc(N)sc3Cl)[C@H]2SC1 [Cmpd 3, (7R)-7-[(Z)-2-(2-amino-5-chlorothiazol-4-yl)-2-(hydroxyimino)acetamido]-3-[4-(2-aminoethylthiomethyl)-2-amino-1,3-thiazol-5-ylthio]-3-cephem-4-carboxylic acid] | – | 8 (≈ 12.8 µM) | 1 (≈ 1.6 µM) | – | 1 (≈ 1.6 µM) | 4 | – |
| NCCSCc1ncccc1SC1=C(C(=O)O)N2C(=O)[C@@H](NC(=O)/C(=N\O)c3nc(N)sc3Cl)[C@H]2SC1 [Cmpd 13, (7R)-7-[(Z)-2-(2-amino-5-chlorothiazol-4-yl)-2-(hydroxyimino)acetamido]-3-[2-(2-aminoethylthiomethyl)pyrid-3-ylthio]-3-cephem-4-carboxylic acid] | – | – | – | 0.5 (≈ 0.83 µM) | – | 2 | – |
| NCCSCc1cnccc1SC1=C(C(=O)O)N2C(=O)C(NC(=O)/C(=N\O)c3csc(N)n3)C2SC1 (stereo not shown) [Cmpd 19] | > 32 | 4 (≈ 7.05 µM) | 2 (≈ 3.52 µM) | 2 (≈ 3.52 µM) | 4 (≈ 7.05 µM) | 2 | – |
| NCCSCc1cnccc1SC1=C(C(=O)O)N2C(=O)[C@@H](NC(=O)/C(=N\O)c3cccc(N)n3)[C@H]2SC1 [Cmpd 24, (7R)-7-[(Z)-2-(2-aminopyrid-6-yl)-2-(hydroxyimino)acetamido]-3-[3-(2-aminoethylthiomethyl)pyrid-4-ylthio]-3-cephem-4-carboxylic acid] | 32 (≈ 57 µM) | 2 (≈ 3.56 µM) | 1 (≈ 1.78 µM) | 1 (≈ 1.78 µM) | 2 (≈ 3.56 µM) | – | 0.5 (≈ 0.89 µM) |
| NCCSCc1ncsc1SC1=C(C(=O)O)N2C(=O)[C@@H](NC(=O)/C(=N\O)c3cccc(N)n3)[C@H]2SC1 [Cmpd 23, (7R)-7-[(Z)-2-(2-aminopyrid-6-yl)-2-(hydroxyimino)acetamido]-3-[4-(2-aminoethylthiomethyl)-1,3-thiazol-5-ylthio]-3-cephem-4-carboxylic acid] | – | 2 (≈ 3.52 µM) | 2 (≈ 3.52 µM) | 1 (≈ 1.76 µM) | 4 (≈ 7.05 µM) | – | – |
| NCCSCc1ccncc1SC1=C(C(=O)O)N2C(=O)[C@@H](NC(=O)/C(=N\O)c3nc(N)sc3Cl)[C@H]2SC1 [Cmpd 21, (7R)-7-[(Z)-2-(2-amino-5-chlorothiazol-4-yl)-2-(hydroxyimino)acetamido]-3-[4-(2-aminoethylthiomethyl)pyrid-3-ylthio]-3-cephem-4-carboxylic acid] | – | – | – | – | – | 2 | – |
| N=C(N)NCCSCc1ncccc1SC1=C(C(=O)O)N2C(=O)[C@@H](NC(=O)/C(=N\O)c3nsc(N)n3)[C@H]2SC1 [Cmpd 14, (7R)-7-[(Z)-2-(5-amino-1,2,4-thiadiazol-3-yl)-2-(hydroxyimino)acetamido]-3-[2-(2-guanidinoethylthiomethyl)pyrid-3-ylthio]-3-cephem-4-carboxylic acid] | – | – | – | – | – | 2 | – |
| NCCSCc1ncccc1SC1=C(C(=O)O)N2C(=O)[C@@H](NC(=O)/C(=N\O)c3nsc(N)n3)[C@H]2SC1 [Cmpd 17, (7R)-7-[(Z)-2-(5-amino-1,2,4-thiadiazol-3-yl)-2-(hydroxyimino)acetamido]-3-[2-(2-aminoethylthiomethyl)pyrid-3-ylthio]-3-cephem-4-carboxylic acid] | – | – | – | – | – | 2 | – |
